Values of other authors in patent US7858334B2, “Degradation of hydrophobic ester pesticides and toxins” (priority 2002, dated 2010).

## CC1(C)C(C=C(Cl)Cl)C1C(=O)OCc1cccc(Oc2ccccc2)c1 (racemic) [permethrin, 3-phenoxybenzyl(1RS)-cis, trans-3-(2,2-dichlorovinyl)-2,2-dimethylcyclopropane carboxylate]
  published solubility in aqueous solution: 0.5 µM
